The values below come from ChEMBL document CHEMBL1137427, “Efforts toward oral bioavailability in factor VIIa inhibitors” (Bioorg Med Chem Lett, 2006).

For series [1], the target named is T1, Coagulation factor VII (Homo sapiens, UniProt P08709).
T1 sequence (P08709 whole entry): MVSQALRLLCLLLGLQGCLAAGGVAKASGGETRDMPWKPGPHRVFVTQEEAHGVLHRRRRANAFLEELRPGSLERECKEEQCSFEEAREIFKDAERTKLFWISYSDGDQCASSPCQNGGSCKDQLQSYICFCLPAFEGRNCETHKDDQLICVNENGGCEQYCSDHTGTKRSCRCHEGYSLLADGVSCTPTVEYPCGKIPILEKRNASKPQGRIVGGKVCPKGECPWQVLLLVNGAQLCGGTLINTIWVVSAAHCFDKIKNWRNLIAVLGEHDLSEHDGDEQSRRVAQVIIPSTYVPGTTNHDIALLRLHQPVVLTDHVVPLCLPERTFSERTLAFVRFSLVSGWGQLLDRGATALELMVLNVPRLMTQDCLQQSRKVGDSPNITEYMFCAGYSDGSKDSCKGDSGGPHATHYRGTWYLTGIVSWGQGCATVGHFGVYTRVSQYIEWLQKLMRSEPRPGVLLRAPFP

Series [2] can be described thus: Mean residence time in iv dosed rat. It counts as ADME, organism-based. As to conditions: in vivo.
For series [3], the target named is Coagulation factor VII/tissue factor (Homo sapiens) (UniProt P08709+P13726). As to conditions: Plasma.
Description: Anticoagulant potency in human plasma as measured by prothrombin time
Series [4] in a line: Mean residence time in iv dosed Sprague-Dawley rat. The series is classed as ADME, organism-based. As to conditions: in vivo.
Series [5] can be described thus: Cmax in portal vein catheter of Sprague-Dawley rat at 10 mg/kg, po. As to conditions: in vivo. The series is classed as ADME, organism-based. Also on record: dose 10 mg/kg, route oral.
Series [6] is described as follows: Tmax in portal vein catheter of Sprague-Dawley rat at 10 mg/kg, po. The series is classed as ADME, organism-based. Also on record: dose 10 mg/kg, route oral. As to conditions: in vivo.
Series [7] in a line: AUC in portal vein catheter of Sprague-Dawley rat at 10 mg/kg, po. It counts as ADME, organism-based. Details: dose 10 mg/kg, route oral. As to conditions: plasma.
The nature of series [8]: Terminal half life in portal vein catheter of Sprague-Dawley rat at 10 mg/kg, po. The series is classed as ADME, organism-based. Details: dose 10 mg/kg, route oral. Conditions: in vivo.
Series [9] is described as follows: Cmax in jugular vein catheter of Sprague-Dawley rat at 10 mg/kg, po. The series is classed as ADME, organism-based. Details: dose 10 mg/kg, route oral. As to conditions: in vivo.
Series [10] is described as follows: Tmax in jugular vein catheter of Sprague-Dawley rat at 10 mg/kg, po. The series is classed as ADME, organism-based. Details: dose 10 mg/kg, route oral. Conditions: in vivo.
Series [11] can be described thus: AUC in jugular vein catheter of Sprague-Dawley rat at 10 mg/kg, po. Details: dose 10 mg/kg, route oral. The series is classed as ADME, organism-based. Conditions: plasma.
Series [12] can be described thus: Terminal half life in jugular vein catheter of Sprague-Dawley rat at 10 mg/kg, po. The series is classed as ADME, organism-based. Conditions: in vivo. Also on record: dose 10 mg/kg, route oral.
The nature of series [13]: Oral absorption in Sprague-Dawley rat at 10 mg/kg, po (AUC po, pv/AUC iv, jv). The series is classed as ADME, organism-based. Details: dose 10 mg/kg, route oral. As to conditions: in vivo.
A short description of series [14]: Oral bioavailability in Sprague-Dawley rat at 10 mg/kg, po (AUC po, jv/AUC iv, jv). It counts as ADME, organism-based. As to conditions: in vivo.

pKi: −log10 of the molar value. Some results are limits rather than exact numbers.

The compound `Cc1cc(-c2nc3cc(C(=N)N)ccc3[nH]2)c(O)c(-c2cc(CNC(N)=O)ccc2O)c1` showed a negative-log Ki (pKi) in [1] of 8.40. The MRT in [2] was under 20 min. In series [3], this compound showed a 2PT of 2 µM.

In turn, `CCCCCC(=O)NCc1ccc(O)c(-c2cccc(-c3cc4cc(C(=N)N)ccc4[nH]3)c2O)c1` gave a pKi in series [1] of 7.89. Further, the MRT in series [4] was 89 min. Also, the Cmax in [5] turned out to be 14 nM; in series [9], 12 nM. Also, the Tmax in series [6] is 40 min; in series [10], 30 min. Further, the exposure (AUC) is 0.0147 µM·h in series [7] and 0.0122 µM·h in series [11]. The half-life in [8] was found to be 26 min; in series [12], 37 min. The 2PT in series [3] turned out to be 1.4 µM.

Regarding `CN(C)CCCC(=O)NCc1ccc(O)c(-c2cccc(-c3cc4cc(C(=N)N)ccc4[nH]3)c2O)c1`, the negative-log Ki (pKi) in series [1] is 7.80. In series [4], the MRT is 50 min. This compound also had a 2PT in series [3] of 0.9 µM.

Consider `N=C(N)c1ccc2[nH]c(-c3cccc(-c4cc(CNC(N)=O)ccc4O)c3O)nc2c1`, for which the pKi in series [1] is 7.85. Besides, the MRT in [2] was 20 min. In addition, in series [3], the 2PT is 2.3 µM.

Consider `CCCCCC(=O)NCc1ccc(O)c(-c2cccc(-c3cc4cc(C(=N)NO)ccc4[nH]3)c2O)c1`, for which the results for the Cmax in series [5] and in [9] were 1310 nM and 1730 nM, respectively. For the same compound, the time of peak concentration (Tmax) in series [6] was 31 min; in series [10], 30 min. Further, the figures for the AUC in series [7] and in series [11] were 2.03 µM·h and 2.4 µM·h, respectively. In addition, the figures for the half-life in [8] and in series [12] were 49 min and 54 min, respectively. The Fa in series [13] was determined as 9%. The bioavailability in series [14] was found to be 11%.

On to `N=C(N)c1ccc2[nH]c(-c3cccc(-c4cc(CNC(=O)CO)ccc4O)c3O)cc2c1`, for which the pKi in series [1] was 8.52. In [4], this compound gave an MRT of 117 min. The same compound returned a 2PT in series [3] of 0.9 µM.

On to `N=C(N)c1ccc2[nH]c(-c3cc(F)cc(-c4cc(CNC(N)=O)ccc4O)c3O)nc2c1`, for which, in series [1], the pKi was 8.30. Besides, the MRT in series [2] was under 20 min. This compound also came in with a 2PT in series [3] of 2.5 µM.

For the compound `CC(=O)NCc1ccc(O)c(-c2cccc(-c3cc4cc(C(=N)N)ccc4[nH]3)c2O)c1`, in [1], the pKi is 6.92.

Compound `N=C(N)c1ccc2[nH]c(-c3cc(C(CC(=O)O)C(=O)O)cc(-c4cc(CNC(N)=O)ccc4O)c3O)nc2c1` (centres undefined) showed a negative-log Ki (pKi) in series [1] of 9.00. The same compound returned an MRT in [2] of over 60 min. The 2PT in series [3] was 1.9 µM.

Take `N=C(N)c1ccc2[nH]c(-c3cc(CC(=O)O)cc(-c4cc(CNC(N)=O)ccc4O)c3O)nc2c1`: the pKi in [1] is 7.85. This compound registered an MRT in series [2] of under 20 min.

In the case of `N=C(N)c1ccc2[nH]c(-c3cccc(-c4cc(CNC(=O)N5CCOCC5)ccc4O)c3O)cc2c1`, the pKi in series [1] was 7.77. In addition, the 2PT in series [3] came to 2 µM.

As usually defined, the pKi is the Ki on a negative log10 scale, so that one unit is a factor of ten. Low readings indicate a large Ki, high ones a small Ki. What is called MRT is a mean duration of stay, worked out from the concentration-time curve. What is called Cmax is the peak of the concentration-time curve. A word on the Tmax: it is the time from dosing to the highest level. Broadly, the AUC is the area under the concentration-time curve, a measure of exposure. What is called half-life is the time needed for the level to fall by half in the phase considered. A high value points to slow decline. The bioavailability is dose-corrected exposure relative to a reference, in per cent. A higher bioavailability goes with much systemic uptake.
